According to patent publication US20070264355A1, “BINARY COMPOSITIONS AND METHODS FOR STERILIZATION” (Binary, LLC, priority 2005, published 2007):
“Also recorded” adds a separate entry of the source.

Key:
Type in all cases: cell-based
[1] = system: Bacillus subtilis (ATCC 19659) spores; test: Microbicidal activity against Bacillus subtilis spores (suspension test, surviving CFU)
Description: (§1) Each solution was used alone for the individual controls. Organism suspensions were used to achieve a final target concentration of 2-3×10^6 CFU per ml. For the binary system treatments, sodium hypochlorite solution and hydrogen peroxide solution, non-acidified or acidified, were sequentially added to the microorganisms. Acidified hydrogen peroxide solution was obtained by the addition of 1.0% v/v of 0.001 N hydrochloride solution. After each addition, the resulting mixture was allowed to remain in contact with the organisms for a set amount of time at room temperature (about 22° C.), as listed in the Tables 1 and 2. At the end of the treatment time, the mixtures were neutralized with 200 to 500 microliters of thiosulfate solution (2.4%) to quench the activity of sodium hypochlorite and then treated with 100 to 200 microliters of a 1% catalase solution, containing a minimum of 100 units/ul, to quench the hydrogen peroxide activity. If needed, an appropriate volume of sterile saline was added to bring the final volume of reaction mixture to 1.4 ml after neutralization. Serial dilution plate counts were performed from the contents of each vial in sterile saline and inoculated onto TSA for quantitative culture. Plates were then incubated at 37° C. and counts taken at 24 hours.
Suspensions of Bacillus subtilis (ATCC 19659) containing 100% spores, as confirmed by microscopy, were obtained by washing the spun-down cells with 50% ethanol to eliminate the vegetative form. Starting inoculum of approximately 1-3×10^6 CFU was used as in Example 1.
[…] The binary system was neutralized 30 minutes after addition of hydrogen peroxide using 2.4% thiosulfate and 1% catalase as described in Example 1.

[2] = system: Staphylococcus aureus (ATCC 6538); test: Microbicidal activity against Staphylococcus aureus (suspension test, surviving CFU)
Protocol: Bacterial suspensions, specifically Staphylococcus aureus (ATCC 6538) in this example, were prepared by the shake flask method to achieve late log to early stationary phase growth. Bacteria were grown 24 hours in trypticase soy broth (TSB) at 35° C. The cultures were centrifuged at 4,000 rpm for 10 minutes and the supernatants removed. The pellet was collected and washed twice with sterile 0.9% normal saline. The washed microorganisms were suspended and diluted with normal saline to a 3 McFarland standard, i.e., approximately 10^9 bacteria colony forming units (CFU) per ml. Actual colony counts are confirmed by serial dilutions (10^−1 to 10^−5 or 10^−6) plated on trypticase soy agar (TSA) and incubated overnight at 35° C. One hundred microliters of organisms from a stock of 10^7 CFU/ml were used to obtain an approximate final working target inoculum of 10^6 CFU. The microbicidal test is conducted in a vial containing 1.4 ml of final reaction mixture after neutralization.
as §1
After an additional 30 minutes, the binary system mixture was then neutralized using 2.4% thiosulfate followed by 1% catalase as described in the Methods Section.

[3] = system: Escherichia coli (ATCC 25922); test: Microbicidal activity against Escherichia coli (suspension test, surviving CFU); conditions: H2O2 88 mM 15 min; inoculum 1630000 CFU
Description: as §1, with “hours. […]” for “hours.”

[4] = H2O2 35.25 mM 30 min, inoculum 1120000 CFU
[5] = H2O2 88 mM 60 min, inoculum 1865000 CFU
[6] = H2O2 294 mM 60 min, inoculum 1865000 CFU
[7] = H2O2 882 mM 60 min, inoculum 1865000 CFU
[8] = H2O2 2940 mM 60 min, inoculum 1865000 CFU
[9] = H2O2 8821 mM 60 min, inoculum 1865000 CFU
[10] = H2O2 0.35 mM 30 min, inoculum 2530000 CFU
[11] = H2O2 88 mM 5 min, inoculum 1600000 CFU
[12] = H2O2 88 mM 15 min, inoculum 1600000 CFU
[13] = H2O2 88 mM 30 min, inoculum 1600000 CFU
[14] = H2O2 294 mM 5 min, inoculum 1600000 CFU
[15] = H2O2 294 mM 15 min, inoculum 1600000 CFU
[16] = H2O2 294 mM 30 min, inoculum 1600000 CFU
[17] = H2O2 882 mM 5 min, inoculum 1600000 CFU
[18] = H2O2 882 mM 15 min, inoculum 1600000 CFU
[19] = H2O2 882 mM 30 min, inoculum 1600000 CFU
[20] = H2O2 2940 mM 5 min, inoculum 1600000 CFU
[21] = H2O2 2940 mM 15 min, inoculum 1600000 CFU
[22] = H2O2 2940 mM 30 min, inoculum 1600000 CFU
[23] = H2O2 8821 mM 5 min, inoculum 1600000 CFU
[24] = H2O2 8821 mM 15 min, inoculum 1600000 CFU
[25] = H2O2 8821 mM 30 min, inoculum 1600000 CFU

With `OO` [H2O2, hydrogen peroxide] the “Log 10 (CFU + 1) Survivors” value [1, 4] was 6.1, the “Log Reduction” value [1, 4] was −0.1 and the “Total Viability (CFU)” value [1, 4] was 1358000 CFU. The “Log 10 (CFU + 1) Survivors” value [1, 5] was 6.3, the “Log Reduction” value [1, 5] was 0.0 and the “Total Viability (CFU)” value [1, 5] was 1974000 CFU. The “Log 10 (CFU + 1) Survivors” value [1, 6] was 6.2, the “Log Reduction” value [1, 6] was 0.1 and the “Total Viability (CFU)” value [1, 6] was 1484000 CFU. For the same compound, the “Log 10 (CFU + 1) Survivors” value [1, 7] was 5.3, the “Log Reduction” value [1, 7] was 1.0 and the “Total Viability (CFU)” value [1, 7] was 200200 CFU. For the same compound, the “Log 10 (CFU + 1) Survivors” value [1, 8] was 2.8, the “Log Reduction” value [1, 8] was 3.5 and the “Total Viability (CFU)” value [1, 8] was 588 CFU. The “Log 10 (CFU + 1) Survivors” value [1, 9] was 0.0, the “Log Reduction” value [1, 9] was 6.3 and the “Total Viability (CFU)” value [1, 9] was 0 CFU. The “microbicidal activity (kill of inoculum)” value ([1]; hydrogen peroxide 8821 mM, within 60 minutes, 6.3 log10 CFU inoculum) was “complete kill”, the “microbicidal activity (kill of inoculum)” value ([1]; hydrogen peroxide 294 to 88 mM, within 60 minutes) was “no microbicidal activity” and the “microbicidal activity (kill of inoculum)” value ([1]; hydrogen peroxide 2940 and 882 mM, 60 minutes) was “partial kill”. The “Log 10 (CFU + 1) Survivors” value [2, 10] was 6.2, the “Log Reduction” value [2, 10] was 0.2 and the “Total Viability (CFU)” value [2, 10] was 1764000 CFU. For the same compound, the “Log 10 (CFU + 1) Survivors” value [2, 11] was 6.2, the “Log Reduction” value [2, 11] was 0.0 and the “Total Viability (CFU)” value [2, 11] was 1694000 CFU. For the same compound, the “Log 10 (CFU + 1) Survivors” value [2, 12] was 6.3, the “Log Reduction” value [2, 12] was −0.1 and the “Total Viability (CFU)” value [2, 12] was 2044000 CFU. The “Log 10 (CFU + 1) Survivors” value [2, 13] was 6.3, the “Log Reduction” value [2, 13] was −0.1 and the “Total Viability (CFU)” value [2, 13] was 1792000 CFU. For the same compound, the “Log 10 (CFU + 1) Survivors” value [2, 14] was 6.1, the “Log Reduction” value [2, 14] was 0.1 and the “Total Viability (CFU)” value [2, 14] was 1288000 CFU. The “Log 10 (CFU + 1) Survivors” value [2, 15] was 6.1, the “Log Reduction” value [2, 15] was 0.1 and the “Total Viability (CFU)” value [2, 15] was 1190000 CFU. The “Log 10 (CFU + 1) Survivors” value [2, 16] was 1.3, the “Log Reduction” value [2, 16] was 4.9 and the “Total Viability (CFU)” value [2, 16] was 21 CFU. For the same compound, the “Log 10 (CFU + 1) Survivors” value [2, 17] was 4.1, the “Log Reduction” value [2, 17] was 2.1 and the “Total Viability (CFU)” value [2, 17] was 12040 CFU. The “Log 10 (CFU + 1) Survivors” value [2, 18] was 0.0, the “Log Reduction” value [2, 18] was 6.2 and the “Total Viability (CFU)” value [2, 18] was 0 CFU. For the same compound, the “Log 10 (CFU + 1) Survivors” value [2, 19] was 0.0, the “Log Reduction” value [2, 19] was 6.2 and the “Total Viability (CFU)” value [2, 19] was 0 CFU. The “Log 10 (CFU + 1) Survivors” value [2, 20] was 0.0, the “Log Reduction” value [2, 20] was 6.2 and the “Total Viability (CFU)” value [2, 20] was 0 CFU. For the same compound, the “Log 10 (CFU + 1) Survivors” value [2, 21] was 0.0, the “Log Reduction” value [2, 21] was 6.2 and the “Total Viability (CFU)” value [2, 21] was 0 CFU. For the same compound, the “Log 10 (CFU + 1) Survivors” value [2, 22] was 0.0, the “Log Reduction” value [2, 22] was 6.2 and the “Total Viability (CFU)” value [2, 22] was 0 CFU. For the same compound, the “Log 10 (CFU + 1) Survivors” value [2, 23] was 0.0, the “Log Reduction” value [2, 23] was 6.2 and the “Total Viability (CFU)” value [2, 23] was 0 CFU. For the same compound, the “Log 10 (CFU + 1) Survivors” value [2, 24] was 0.0, the “Log Reduction” value [2, 24] was 6.2 and the “Total Viability (CFU)” value [2, 24] was 0 CFU. The “Log 10 (CFU + 1) Survivors” value [2, 25] was 0.0, the “Log Reduction” value [2, 25] was 6.2 and the “Total Viability (CFU)” value [2, 25] was 0 CFU. For the same compound, the “microbicidal activity (kill of inoculum)” value ([2]; highest concentration of hydrogen peroxide used in the binary system, tested alone) was “completely ineffective and produced no kill”, the “microbicidal activity (kill of inoculum)” value ([2]; hydrogen peroxide 88 mM, within 30 minutes) was “no microbicidal activity; also recorded: not microbicidal” and the “microbicidal activity (kill of inoculum)” value ([2]; hydrogen peroxide 8821 and 2940 mM, within 5 minutes, 6.2 log10 CFU inoculum) was “complete kill”. The “microbicidal activity (kill of inoculum)” value ([2]; hydrogen peroxide intermediate concentrations) was “partial kill”, the “Log 10 (CFU + 1) Survivors” value [3] was 5.8 and the “Log Reduction” value [3] was 0.4. The “Total Viability (CFU)” value [3] was 588000 CFU.
